Measurements taken from patent publication US20050065187A1, “Novel antimicrobial aryloxazolidinone compounds” (priority 2003, published 2005).
Values after ≈ are worked out from the molar mass of the structure shown. Where two headings read alike, the source gives them in different places.

Legend:
Test in all cases: Antibacterial assay (Test A), microtitration MIC
MC 30603 = assay type: cell-based, M. catarrhalis; conditions: Moraxella catarrhalis, read-out: MC 30603 MIC
Method: (§1) Test A—Antibacterial Assays
(§2) The compounds of the present invention were tested against an assortment of Gram-negative and Gram-positive organisms using standard microtitration techniques (Cohen et. al., Antimicrob., 1985;28:766; Heifetz, et. al., Antimicrob., 1974;6:124).

SPNE 9912 = assay type: cell-based, S. pneumoniae; conditions: Streptococcus pneumoniae, read-out: SPNE 9912 MIC
Method: as §1, §2

HINF 30063 = assay type: cell-based, H. influenza; conditions: Minimum Inhibitory Concentration, strain HINF 30063
Method: as §1, §2

SAUR 9213 = assay type: cell-based, S. aureus; conditions: Staphylococcus aureus, read-out: SAUR 9213 MIC
Method: as §1, §2

[1] = Minimum Inhibitory Concentration, strain MC 30603
[2] = Minimum Inhibitory Concentration, strain SPNE 9912
[3] = Minimum Inhibitory Concentration, strain SAUR 9213

CC(=O)NC[C@H]1CN(c2ccc(C3CCC(O)C(F)C3)c(F)c2)C(=O)O1 (single isomer, unassigned) [Example 26, N-{3-[3-Fluoro-4-(3-fluoro-4-hydroxy-cyclohexyl)-phenyl]-2-oxo-oxazolidin-5-ylmethyl}-acetamide]
MIC (MC 30603; [1]): 8 µg/mL (≈ 21.7 µM) | MIC (SPNE 9912; [2]): 0.5 µg/mL (≈ 1.36 µM) | MIC (HINF 30063): 16 µg/mL (≈ 43.4 µM) | MIC (SAUR 9213; [3]): 2 µg/mL (≈ 5.43 µM)

NC(=O)[C@H]1CN(c2ccc(C3CCC(O)CC3)c(F)c2)C(=O)O1 (stereo in doubt) [Example 23, 3-[3-Fluoro-4-(4-hydroxy-cyclohexyl)-phenyl]-2-oxo-oxazolidine-5-carboxylic acid amide]
MIC (MC 30603; [1]): 16 µg/mL (≈ 49.6 µM) | MIC (SPNE 9912; [2]): 1 µg/mL (≈ 3.1 µM) | MIC (HINF 30063): 64 µg/mL (≈ 199 µM) | MIC (SAUR 9213; [3]): 2 µg/mL (≈ 6.2 µM)

O=C(NC[C@H]1CN(c2ccc(C3CCC(O)CC3)c(F)c2)C(=O)O1)C(F)F (stereo in doubt) [Example 18, 2,2-Difluoro-N-{3-[3-fluoro-4-(4-hydroxy-cyclohexyl)-phenyl]-2-oxo-oxazolidin-5-ylmethyl}-acetamide]
MIC (MC 30603; [1]): 4 µg/mL (≈ 10.4 µM) | MIC (SPNE 9912; [2]): 0.5 µg/mL (≈ 1.29 µM) | MIC (HINF 30063): 8 µg/mL (≈ 20.7 µM) | MIC (SAUR 9213; [3]): 2 µg/mL (≈ 5.18 µM)

NC(=O)[C@H]1CN(c2ccc(C3CCC(=O)CC3)c(F)c2)C(=O)O1 [Example 24, 3-[3-Fluoro-4-(4-oxo-cyclohexyl)-phenyl]-2-oxo-oxazolidine-5-carboxylic acid amide]
MIC (MC 30603; [1]): 32 µg/mL (≈ 99.9 µM) | MIC (SPNE 9912; [2]): 2 µg/mL (≈ 6.24 µM) | MIC (HINF 30063): 32 µg/mL (≈ 99.9 µM) | MIC (SAUR 9213; [3]): 1 µg/mL (≈ 3.12 µM)

CCC(=O)NC[C@H]1CN(c2ccc(C3CCC(O)C(F)C3)c(F)c2)C(=O)O1 (single isomer, unassigned) [Example 27, N-{3-[3-Fluoro-4-(3-fluoro-4-hydroxy-cyclohexyl)-phenyl]-2-oxo-oxazolidin-5-ylmethyl}-propionamide]
MIC (MC 30603; [1]): 2 µg/mL (≈ 5.23 µM) | MIC (SPNE 9912; [2]): 0.25 µg/mL (≈ 0.654 µM) | MIC (HINF 30063): 8 µg/mL (≈ 20.9 µM) | MIC (SAUR 9213; [3]): 2 µg/mL (≈ 5.23 µM)

CC(=O)NC[C@H]1CN(c2ccc(N3CC[C@@H](O)[C@@H](O)C3)c(F)c2)C(=O)O1 (stereo in doubt) [Example 1, N-{3-[4-(3,4-Dihydroxy-piperidin-1-yl)-3-fluoro-phenyl]-2-oxo-oxazolidin-5-ylmethyl}-acetamide]
MIC (MC 30603): 8 µg/mL (≈ 21.8 µM) | MIC (SPNE 9912): 2 µg/mL (≈ 5.44 µM) | MIC (HINF 30063): 32 µg/mL (≈ 87.1 µM) | MIC (SAUR 9213): 8 µg/mL (≈ 21.8 µM)

O=C(NC[C@H]1CN(c2ccc(C3CCC(O)[C@@H](O)C3)cc2)C(=O)O1)C(F)F (stereo in doubt) [Example 14, N-{3-[4-(3,4-Dihydroxy-cyclohexyl)-phenyl]-2-oxo-oxazolidin-5-ylmethyl}-2,2-difluoro-acetamide]
MIC (MC 30603; [1]): 16 µg/mL (≈ 41.6 µM) | MIC (SPNE 9912; [2]): 2 µg/mL (≈ 5.2 µM) | MIC (HINF 30063): 16 µg/mL (≈ 41.6 µM) | MIC (SAUR 9213; [3]): 8 µg/mL (≈ 20.8 µM)

CC(=O)NC[C@H]1CN(c2ccc([C@@H]3CCC(=O)[C@@H](O)C3)c(F)c2)C(=O)O1 (stereo in doubt) [Example 25, N-{3-[3-Fluoro-4-(3-hydroxy-4-oxo-cyclohexyl)-phenyl]-2-oxo-oxazolidin-5-ylmethyl}-acetamide]
MIC (MC 30603): 8 µg/mL (≈ 22 µM) | MIC (SPNE 9912): 2 µg/mL (≈ 5.49 µM) | MIC (HINF 30063): 16 µg/mL (≈ 43.9 µM) | MIC (SAUR 9213): 2 µg/mL (≈ 5.49 µM)

O=C1O[C@@H](Cn2ccnn2)CN1c1ccc(N2CC[C@@H](O)[C@@H](O)C2)c(F)c1 (stereo in doubt) [Example 5, 3-[4-(3,4-Dihydroxy-piperidin-1-yl)-3-fluoro-phenyl]-5-[1,2,3]triazol-1-ylmethyl-oxazolidin-2-one]
MIC (MC 30603; [1]): 16 µg/mL (≈ 42.4 µM) | MIC (SPNE 9912; [2]): 1 µg/mL (≈ 2.65 µM) | MIC (HINF 30063): 32 µg/mL (≈ 84.8 µM) | MIC (SAUR 9213; [3]): 4 µg/mL (≈ 10.6 µM)

CON=C1CCN(c2ccc(N3CC(CNC(C)=O)OC3=O)cc2F)CC1O (stereo not shown) [Example 4, N-{3-[3-Fluoro-4-(3-hydroxy-4-methoxyimino-piperidin-1-yl)-phenyl]-2-oxo-oxazolidin-5-ylmethyl}-acetamide]
MIC (MC 30603; [1]): 32 µg/mL (≈ 81.1 µM) | MIC (SPNE 9912; [2]): 2 µg/mL (≈ 5.07 µM) | MIC (HINF 30063): 64 µg/mL (≈ 162 µM) | MIC (SAUR 9213; [3]): 8 µg/mL (≈ 20.3 µM)

O=C1O[C@@H](CNC(=S)C(F)F)CN1c1ccc(C2CCC(O)CC2)c(F)c1 (stereo partly shown) [Example 19, 2,2-Difluoro-N-{3-[3-fluoro-4-(4-hydroxy-cyclohexyl)-phenyl]-2-oxo-oxazolidin-5-ylmethyl}-thioacetamide]
MIC (MC 30603; [1]): 2 µg/mL (≈ 4.97 µM) | MIC (SPNE 9912; [2]): 0.5 µg/mL (≈ 1.24 µM) | MIC (HINF 30063): 8 µg/mL (≈ 19.9 µM) | MIC (SAUR 9213; [3]): 2 µg/mL (≈ 4.97 µM)

CC(=O)NC[C@H]1CN(c2ccc(C3CCC(=NO)CC3)c(F)c2)C(=O)O1 (stereo partly shown) [Example 21, N-{3-[3-Fluoro-4-(4-hydroxyimino-cyclohexyl)-phenyl]-2-oxo-oxazolidin-5-ylmethyl}-acetamide]
MIC (MC 30603; [1]): 8 µg/mL (≈ 22 µM) | MIC (SPNE 9912; [2]): 0.5 µg/mL (≈ 1.38 µM) | MIC (HINF 30063): 16 µg/mL (≈ 44 µM) | MIC (SAUR 9213; [3]): 1 µg/mL (≈ 2.75 µM)

CON=C1CCC(c2ccc(N3C[C@H](CNC(C)=O)OC3=O)cc2F)CC1 (stereo partly shown) [Example 22, N-{3-[3-Fluoro-4-(4-methoxyimino-cyclohexyl)-phenyl]-2-oxo-oxazolidin-5-ylmethyl}-acetamide]
MIC (MC 30603; [1]): 1 µg/mL (≈ 2.65 µM) | MIC (SPNE 9912; [2]): 1 µg/mL (≈ 2.65 µM) | MIC (HINF 30063): 32 µg/mL (≈ 84.8 µM) | MIC (SAUR 9213; [3]): 2 µg/mL (≈ 5.3 µM)

CC(=O)NC[C@H]1CN(c2ccc(N3CCC(=O)[C@@H](O)C3)c(F)c2)C(=O)O1 [Example 2, N-{3-[3-Fluoro-4-(3-hydroxy-4-oxo-piperidin-1-yl)-phenyl]-2-oxo-oxazolidin-5-ylmethyl}-acetamide]
MIC (MC 30603; [1]): 8 µg/mL (≈ 21.9 µM) | MIC (SPNE 9912; [2]): 1 µg/mL (≈ 2.74 µM) | MIC (HINF 30063): 16 µg/mL (≈ 43.8 µM) | MIC (SAUR 9213; [3]): 4 µg/mL (≈ 10.9 µM)

O=C(NC[C@H]1CN(c2ccc(C3CCC(O)[C@@H](O)C3)c(F)c2)C(=O)O1)C(F)F (stereo in doubt) [Example 10, N-{3-[4-(3,4-Dihydroxy-cyclohexyl)-3-fluoro-phenyl]-2-oxo-oxazolidin-5-ylmethyl}-2,2-difluoro-acetamide]
MIC (MC 30603; [1]): 4 µg/mL (≈ 9.94 µM) | MIC (SPNE 9912; [2]): 1 µg/mL (≈ 2.49 µM) | MIC (HINF 30063): 8 µg/mL (≈ 19.9 µM) | MIC (SAUR 9213; [3]): 4 µg/mL (≈ 9.94 µM)

O=C(NC[C@H]1CN(c2ccc(C3CCC(O)[C@@H](O)C3)c(F)c2)C(=O)O1)C(Cl)Cl (stereo in doubt) [Example 9, 2,2-Dichloro-N-{3-[4-(3,4-dihydroxy-cyclohexyl)-3-fluoro-phenyl]-2-oxo-oxazolidin-5-ylmethyl}-acetamide]
MIC (MC 30603; [1]): 4 µg/mL (≈ 9.19 µM) | MIC (SPNE 9912; [2]): 1 µg/mL (≈ 2.3 µM) | MIC (HINF 30063): 4 µg/mL (≈ 9.19 µM) | MIC (SAUR 9213; [3]): 4 µg/mL (≈ 9.19 µM)

CCC(=O)NC[C@H]1CN(c2ccc(C3CCC(O)CC3)c(F)c2)C(=O)O1 (stereo in doubt) [Example 17, N-{3-[3-Fluoro-4-(4-hydroxy-cyclohexyl)-phenyl]-2-oxo-oxazolidin-5-ylmethyl}-propionamide]
MIC (MC 30603; [1]): 4 µg/mL (≈ 11 µM) | MIC (SPNE 9912; [2]): 1 µg/mL (≈ 2.74 µM) | MIC (HINF 30063): 4 µg/mL (≈ 11 µM) | MIC (SAUR 9213; [3]): 2 µg/mL (≈ 5.49 µM)

CCC(=O)NC[C@H]1CN(c2ccc(C3CCC(O)[C@@H](O)C3)c(F)c2)C(=O)O1 (stereo in doubt) [Example 8, N-{3-[4-(3,4-Dihydroxy-cyclohexyl)-3-fluoro-phenyl]-2-oxo-oxazolidin-5-ylmethyl}-propionamide]
MIC (MC 30603; [1]): 8 µg/mL (≈ 21 µM) | MIC (SPNE 9912; [2]): 2 µg/mL (≈ 5.26 µM) | MIC (HINF 30063): 8 µg/mL (≈ 21 µM) | MIC (SAUR 9213; [3]): 8 µg/mL (≈ 21 µM)

O=C1CCN(c2ccc(N3C[C@H](Cn4ccnn4)OC3=O)cc2F)C[C@@H]1O [Example 6, 1-[2-Fluoro-4-(2-oxo-5-[1,2,3]triazol-1-ylmethyl-oxazolidin-3-yl)-phenyl]-3-hydroxy-piperidin-4-one]
MIC (MC 30603; [1]): 8 µg/mL (≈ 21.3 µM) | MIC (SPNE 9912; [2]): 1 µg/mL (≈ 2.66 µM) | MIC (HINF 30063): 64 µg/mL (≈ 171 µM) | MIC (SAUR 9213; [3]): 4 µg/mL (≈ 10.7 µM)

CC(=O)NC[C@H]1CN(c2ccc(C3CCC(O)CC3)c(F)c2)C(=O)O1 (stereo in doubt) [Example 16, N-{3-[3-Fluoro-4-(4-hydroxy-cyclohexyl)-phenyl]-2-oxo-oxazolidin-5-ylmethyl}-acetamide]
MIC (MC 30603; [1]): 4 µg/mL (≈ 11.4 µM) | MIC (SPNE 9912; [2]): 1 µg/mL (≈ 2.85 µM) | MIC (HINF 30063): 8 µg/mL (≈ 22.8 µM) | MIC (SAUR 9213; [3]): 2 µg/mL (≈ 5.71 µM)

CC(=O)NC[C@H]1CN(c2ccc(C3CCC(=O)CC3)c(F)c2)C(=O)O1 [Example 20, N-{3-[3-Fluoro-4-(4-oxo-cyclohexyl)-phenyl]-2-oxo-oxazolidin-5-ylmethyl}-acetamide]
MIC (MC 30603; [1]): 8 µg/mL (≈ 23 µM) | MIC (SPNE 9912; [2]): 0.5 µg/mL (≈ 1.44 µM) | MIC (HINF 30063): 16 µg/mL (≈ 45.9 µM) | MIC (SAUR 9213; [3]): 2 µg/mL (≈ 5.74 µM)

O=C1O[C@@H](CNC(=S)C(F)F)CN1c1ccc(C2CCC(O)[C@@H](O)C2)c(F)c1 (stereo in doubt) [Example 11, N-{3-[4-(3,4-Dihydroxy-cyclohexyl)-3-fluoro-phenyl]-2-oxo-oxazolidin-5-ylmethyl}-2,2-difluoro-thioacetamide]
MIC (MC 30603; [1]): 4 µg/mL (≈ 9.56 µM) | MIC (SPNE 9912; [2]): 0.5 µg/mL (≈ 1.19 µM) | MIC (HINF 30063): 8 µg/mL (≈ 19.1 µM) | MIC (SAUR 9213; [3]): 1 µg/mL (≈ 2.39 µM)
